Patent US9040525B2, “Cyclic amide derivative” (MOCHIDA PHARMACEUTICAL CO., LTD., priority 2010, dated 2015)
Where a name gives a salt, the structure may show the parent alone.

Biological target: T1, GPR40 of human origin (Homo sapiens, UniProt O14842)
T1 construct: expressed in transfected cells
Test: Agonist action on GPR40 of human origin (Ca2+ fluorescence, CHO cell strain stably expressing GPR40)
Format: cell-based
Conditions: fluctuation of Ca2+ concentration
Experimental: A CHO cell strain stably expressing GPR40 of human origin was used to determine the agonist action of a title compound. This cell strain was seeded in a clear bottom 96 well plate at 2×10^4 cells/100 μL/well. The cell strain was cultured in a CO2 incubator overnight using a Ham's F-12 medium containing a 10% fetal bovine serum, 100 U/mL penicillin, 0.1 mg/mL streptomycin, and 400 μg/mL. Geneticin. Calcium 4 Assay Kit (Molecular Devices) was used as a fluorescent calcium indicator. One mL of 77 mg/mL probenecid (Invitrogen) was added to 100 mL of a calcium indicator solution to prepare a solution (loading solution) mixed with a 20 mM HEPES-containing Hanks' balanced salt solution (HBSS) in equal proportions. To the cells from which the culture solution was removed, 200 μL of the loading solution was added, and the cells were cultured in a CO2 incubator for 1 hour. The title compound was diluted with a 20 mM HEPES-containing HBSS and was added to the cells by 50 μL, and the fluctuation of the Ca^2+concentration was measured by an intracellular ion analyzer. The EC50 value of the title compound was calculated using the dose-response curve of fluorescence intensity variation.

T1 sequence (O14842 whole entry): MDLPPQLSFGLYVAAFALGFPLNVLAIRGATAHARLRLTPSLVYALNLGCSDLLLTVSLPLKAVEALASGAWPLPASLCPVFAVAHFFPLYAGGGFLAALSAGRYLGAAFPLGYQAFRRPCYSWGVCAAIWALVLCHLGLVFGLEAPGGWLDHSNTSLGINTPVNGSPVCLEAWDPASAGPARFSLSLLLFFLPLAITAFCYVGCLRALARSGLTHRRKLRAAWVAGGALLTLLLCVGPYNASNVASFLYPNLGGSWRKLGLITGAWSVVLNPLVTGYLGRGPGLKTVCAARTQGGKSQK

EC50	SMILES
300 to 3000 nM	Cc1cc(OCCCS(C)(=O)=O)cc(C)c1-c1cccc(COc2ccc(N3CC(=O)NS3(=O)=O)cc2)c1 [Example 15, 5-[4-[[3-[2,6-dimethyl-4-(3-methylsulfonylpropoxy)phenyl]phenyl]methoxy]phenyl]-1,1-dioxo-1,2,5-thiadiazolidin-3-one]
< 300 nM	CCOCCOc1cc(C)c(-c2cccc(COc3ccc(C4CC(=O)N[S+]4[O-])cc3)c2)c(C)c1F (stereo not shown) [Example 2, 5-[4-[[3-[4-(2-ethoxyethoxy)-3-fluoro-2,6-dimethylphenyl]phenyl]methoxy]phenyl]-1-oxo-1,2-thiazolidin-3-one]
< 300 nM	Cc1cccc(C)c1-c1cccc(COc2ccc(N3CC(=O)NS3(=O)=O)c(Cl)c2)c1 [Example 16, 5-[2-chloro-4-[[3-(2,6-dimethylphenyl)phenyl]methoxy]phenyl]-1,1-dioxo-1,2,5-thiadiazolidin-3-one]
< 300 nM	Cc1cc(OCCCS(C)(=O)=O)cc(C)c1-c1cccc(COc2ccc(C3CC(=O)NS3(=O)=O)cc2)c1 (racemic) [Example 19, 5-[4-[[3-[2,6-dimethyl 4-(3-methylsulfonylpropoxy)phenyl]phenyl]methoxy]phenyl]-1,1-dioxo-1,2-thiazolidin-3-one]
< 300 nM	Cc1cc(OCC(CO)CO)cc(C)c1-c1cccc(COc2ccc(C3CC(=O)N[S+]3[O-])cc2)c1 (stereo not shown) [Example 10, 5-[4-[[3-[4-[3-hydroxy-2-(hydroxymethyl)propoxy]-2,6-dimethylphenyl]phenyl]methoxy]phenyl]-1-oxo-1,2-thiazolidin-3-one]
< 300 nM	CCOCCOc1cc(C)c(-c2cccc(COc3ccc(C4CC(=O)N[S+]4[O-])cc3)c2)c(C)c1 (mixture of isomers) [Example 1, 5-[4-[[3-[4-(2-ethoxyethoxy)-2,6-dimethylphenyl]phenyl]methoxy]phenyl]-1-oxo-1,2-thi azolidin-3-one]
< 300 nM	Cc1cc(OCCCS(C)(=O)=O)nc(C)c1-c1cccc(COc2ccc(C3CC(=O)N[S+]3[O-])cc2)c1 (stereo not shown) [Example 5, 5-[4-[[3-[2,4-dimethyl-6-(3-methylsulfonylpropoxy)pyridin-3-yl]phenyl]methoxy]phenyl]-1-oxo-1,2-thiazolidin-3-one]
< 300 nM	Cc1cc(OCCCS(C)(=O)=O)cc(C)c1-c1cccc(COc2ccc(C3CC(=O)NS(=O)(=O)C3)cc2)c1 (stereo not shown) [Example 31, 5-[4-[[3-[2,6-dimethyl 4-(3-methylsulfonylpropoxy)phenyl]phenyl]methoxy]phenyl]-1,1-dioxo-1,2-thiazinan-3-one]
< 300 nM	N#Cc1ccc(Oc2cccc3c2CC[C@H]3Oc2ccc(C3CC(=O)NS(=O)(=O)N3)cc2)cc1 (stereo partly drawn) [Example 26, 4-(((1R)-1-(4-(1,1-dioxo-1,2,6-thiadiazinan-3-on-5-yl)phenoxy)-2,3-dihydro-1H-inden-4-yl)oxy)benzonitrile]
300 to 3000 nM	Cc1nc(OCCC(C)(C)O)ccc1-c1cccc2c1CC[C@H]2Oc1ccc(C2CC(=O)N[S+]2[O-])cc1 (single isomer, unassigned) [23(A)-b]
< 300 nM	O=C1CC(c2ccc(O[C@@H]3CCc4c(Br)cccc43)cc2)CS(=O)(=O)N1 (stereo partly drawn) [Example 33, 5-(4-(((R)-4-bromo-2,3-dihydro-1H-inden-1-yl)oxy)phenyl)-1,1-dioxo-1,2-thiazinan-3-one]
< 300 nM	N#Cc1ccc(Oc2cccc3c2CC[C@H]3Oc2ccc(C3CC(=O)NS(=O)(=O)C3)cc2)cc1 (stereo partly drawn) [Example 32, 4-(((1R)-1-(4-(1,1-dioxo-3-oxo-1,2-thiazinan-5-yl)phenoxy)-2,3-dihydro-1H-inden-4-yl)oxy)benzonitrile]
< 300 nM	Cc1cc(OCCC(C)(C)O)cc(C)c1-c1cccc2c1CC[C@H]2Oc1ccc(C2CC(=O)N[S+]2[O-])cc1 (single isomer, unassigned) [24(A)-a]
< 300 nM	Cc1cc(OCCCN)cc(C)c1-c1cccc(COc2ccc(C3CC(=O)N[S+]3[O-])cc2)c1 (stereo not shown) [Example 11, 5-[4-[[3-[4-(3-aminopropoxy)-2,6-dimethylphenyl]phenyl]methoxy]phenyl]-1-oxo-1,2-thiazolidin-3-one trifluoroacetic acid salt]
< 300 nM	O=C1CC(c2ccc(O[C@@H]3CCc4c(Br)cccc43)cc2)[S+]([O-])N1 (stereo partly drawn) [Example 29, 5-(4-(((R)-4-bromo-2,3-dihydro-1H-inden-1-yl)oxy)phenyl)-1-oxo-1,2-thiazolidin-3-one]
< 300 nM	Cc1cccc(C)c1-c1cccc(COc2ccc(C3CC(=O)NS(=O)(=O)C3)cc2)c1 (racemic) [Example 22, 5-[4-[[3-(2,6-dimethylphenyl)phenyl]methoxy]phenyl]-1,1-dioxo-1,2-thiazinan-3-one]
< 300 nM	Cc1cc(OCc2cccc(-c3c(C)cccc3C)c2)ccc1N1CC(=O)NS1(=O)=O [Example 17, 5-[4-[[3-(2,6-dimethylphenyl)phenyl]methoxy]-2-methylphenyl]-1,1-dioxo-1,2,5-thiadiazolidin-3-one]
< 300 nM	Cc1cccc(C)c1-c1cccc(COc2ccc(N3CC(=O)NS3(=O)=O)cc2)c1 [Example 14, 5-[4-[[3-(2,6-dimethylphenyl)phenyl]methoxy]phenyl]-1,1-dioxo-1,2,5-thiadiazolidin-3-one]

SMILES	EC50
Cc1cc(OCCC(C)(C)O)cc(C)c1-c1cccc2c1CC[C@H]2Oc1ccc(C2CC(=O)NS(=O)(=O)C2)cc1 (stereo partly drawn) [Example 34, 5-(4-(((R)-4-(4-(3-hydroxy-3-methylbutoxy)-2,6-dimethylphenyl)-2,3-dihydro-1H-inden-1-yl)oxy)phenyl)-1,1-dioxo-1,2-thiazinan-3-one]	< 300 nM
Cc1cc(OCCC(C)(C)O)cc(C)c1-c1cccc(COc2ccc(C3CC(=O)N[S+]3[O-])cc2)c1 (stereo not shown) [Example 4, 5-[4-[[3-[4-(3-hydroxy-3-methylbutoxy)-2,6-dimethylphenyl]phenyl]methoxy]phenyl]-1-oxo-1,2-thiazolidin-3-one]	< 300 nM
Cc1cc(OCCC(C)(C)O)nc(C)c1-c1cccc(COc2ccc(C3CC(=O)N[S+]3[O-])cc2)c1 (stereo not shown) [Example 6, 5-[4-[[3-[6-(3-hydroxy-3-methylbutoxy)-2,4-dimethylpyridin-3-yl]phenyl]methoxy]phenyl]-1-oxo-1,2-thiazolidin-3-one]	< 300 nM
Cc1cc(OCCC(C)(C)O)nc(C)c1-c1cccc(COc2ccc(C3CC(=O)NS(=O)(=O)C3)cc2)c1 (stereo not shown) [Example 35, 5-[4-[[3-[6-(3-hydroxy-3-methylbutoxy)-2,4-dimethylpyridin-3-yl]phenyl]methoxy]phenyl]-1,1-dioxo-1,2-thiazinan-3-one]	< 300 nM
Cc1cc(-c2cccc(COc3ccc(C4CC(=O)N[S+]4[O-])cc3)c2)c(C)cc1OCCC(C)(C)O (stereo not shown) [Example 7, 5-[4-[[3-[4-(3-hydroxy-3-methylbutoxy)-2,5-dimethylphenyl]phenyl]methoxy]phenyl]-1-oxo-1,2-thiazolidin-3-one]	< 300 nM
Cc1cc(OCCC(C)(C)O)c(F)c(C)c1-c1cccc(COc2ccc(C3CC(=O)N[S+]3[O-])cc2)c1 (stereo not shown) [Example 3, 5-[4-[[3-[3-fluoro-4-(3-hydroxy-3-methylbutoxy)-2,6-dimethylphenyl]phenyl]methoxy]phenyl]-1-oxo-1,2-thiazolidin-3-one]	< 300 nM
Cc1cc(OCCC(C)(C)O)nc(C)c1-c1cccc(COc2ccc(C3CC(=O)NS3(=O)=O)cc2)c1 (racemic) [Example 20, 5-[4-[[3-[6-(3-hydroxy-3-methylbutoxy)-2,4-dimethylpyridin-3-yl]phenyl]methoxy]phenyl]-1,1-dioxo-1,2-thiazolidin-3-one]	300 to 3000 nM
